Measurements: publication PMC12383012 (Antioxidants, 2025)
“Also recorded” adds a separate entry of the source.

Key:
[1] = radical scavenging, parent acid; read-out: AA EC50; cited from earlier work
[2] = target: T1, electric eel acetylcholinesterase (eeAChE) (Electrophorus electricus, UniProt O42275); test: Acetylcholinesterase inhibition (adapted Ellman's method); type: biochemical; conditions: read-out: AChE Inhib IC50
T1 construct: purchased
Protocol: (§1) The enzyme inhibition of electric eel acetylcholinesterase (eeAChE) and equine butyrylcholinesterase (eqBChE) was performed according to an adaptation of Elmman’s method. Stock solutions of 1 mg of each compound in 1 mL MeOH were prepared, and adequate dilutions were further made for each ligand. A control measurement (5 replicates without a ligand) and a calibration curve of 5 points with 3 replicates per point were conducted. Each solution included fixed volumes of 4-(2-hydroxyethyl)-1-piperazine-ethanesulfonic acid (HEPES) and cholinesterase (eeAChE or eqBChE), with different volumes of ligand solution. A blank solution containing HEPES and MeOH was also prepared at the same time. After 15 min of reaction, […] (AChI) or butyrylcholine iodide (BChI) and 5,5’-dithiobis-(2-nitrobenzoic acid) (DTNB) were added to both solutions contained in spectrophotometer cuvettes, and the absorbance at 405 nm was recorded for 5 min (time interval = 1 s, slid width = 1 nm). The slope for each calibration point (absorbance versus reaction time) was determined, and the percent inhibition was calculated by using the equation: %Inhibition=100−(vi/v0×100). where vi is the reaction rate (slope) for each point of the calibration with the ligand, and v0 is the initial reaction rate (slope) for the control point (without ligand). Finally, the five-point linear regression (10–50 µL of ligand solution) corresponding to the percentage of enzyme inhibition vs. the compound concentration allowed for the determination of the half maximal inhibitory concentration (IC50, µM) (compound concentration for which enzyme activity is reduced to half). Experiments were performed twice for each ligand. Statistical analysis was performed by a one-way analysis of variance (ANOVA) with a significance threshold set at p < 0.05.

Aβ1–42 = target: T2, Aβ1–42 (Homo sapiens, UniProt P05067); test: Inhibition of Aβ1–42 self-aggregation (ThT fluorescence); type: biochemical; conditions: 24 h, read-out: % Aβ42 Self-Agg Inhib
T2 construct: the Aβ1–42 peptide (Shanghai Royobiotech Co., Ltd., Shanghai, China); purchased Shanghai Royobiotech Co., Ltd
T2 sequence (P05067 672-713): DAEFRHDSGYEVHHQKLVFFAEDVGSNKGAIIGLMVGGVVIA
Protocol: Firstly, the Aβ1–42 peptide (Shanghai Royobiotech Co., Ltd., Shanghai, China) was treated with 1,1,1,3,3,3-hexafluoropropan-2-ol (HFIP) and then dissolved in a CH3CN/Na2CO3 (300 μM)/NaOH (250 μM) (48.3:48.3:4.3, v/v/v) mixture in order to obtain a stable stock solution (500 μM).
Solutions of 1 mg of the assayed compounds in 2 mL of 1:1 (v/v) DMSO/MeOH (0.5 mg/mL) medium were prepared and then properly diluted with phosphate buffer (0.215 M, pH 8.0) to obtain a 120 μM final concentration. The Aβ1–42 self-aggregation inhibition assays were made based on a reported method, involving the fluorescence emission of thioflavin T (ThT). So, Aβ1–42 (40 μM) was incubated at 37 °C for 24 h in phosphate buffer and in the presence or absence of each ligand (40 μM for all compounds but 4AY4 and 4CY1, for which 20 μM was used). Then, […] 5 μM ThT in 50 mM glycine-NaOH (pH 8.5) buffer were added to each sample before transferring the samples to a 96-well microplate. Blank samples were also prepared without Aβ1–42. The ThT fluorescence was measured (446 and 485 nm excitation and emission wavelengths, respectively), and the percent of self-aggregation inhibition was determined by the equation:I% = 100 − (IFi/IF0 × 100) where IFi and IF0 are the fluorescence intensities, in the presence and the absence of the assayed compound, subtracted from the fluorescence intensities due to the respective blanks. The calculated values were obtained as the mean ± SEM of four different experiments conducted in duplicate. Statistical analysis was performed by a one-way analysis of variance (ANOVA) with a significance threshold set at p < 0.05.

[3] = test system: SH-SY5Y human neuroblastoma cell line; test: Cell viability dose-response screening (MTT); type: cell-based; conditions: 24 h
Protocol: (§2) Cell viability was assessed using the colorimetric MTT (3-(4,5-dimethylthiazol-2-yl)-2,5-diphenyltetrazolium bromide) assay, as previously described.
(§3) The compounds’ solutions (4AY1-6, 4BY1-3, and 4CY1) were prepared in DMSO to create stock solutions at a concentration of 25 mM, which were then stored at −20 °C. A concentration range from 0.5 µM to 20 µM was screened to identify the highest non-toxic dose. The SH-SY5Y human neuroblastoma cell line (ATCC-CRL-2266) was grown in Dulbecco’s modified Eagle’s medium (DMEM) (Thermo Fisher Scientific-Gibco, Waltham, MA, USA) supplemented with 10% heat-inactivated fetal calf serum, 50 U/mL penicillin, and 50 µg/mL streptomycin at 37 °C in a 5% CO2 atmosphere. The cells were seeded at a density of 0.1 × 10^6 cells/mL (when 48-well plates were used) or 0.15 × 10^6 cells/mL (when 24-well plates were used) one day before the experiment commenced. Following the seeding, the cells were treated with the selected concentrations of compounds for 24 h. After treatment, the cells were washed with PBS and incubated with 150 µL (in 48-well plates) or 200 µL (in 24-well plates) of MTT (0.5 mg/mL) for 2 h at 37 °C with 5% CO2. During this incubation, cellular dehydrogenases converted MTT into formazan crystals, which were subsequently dissolved in 150 µL (in 48-well plates) or 200 µL (in 24-well plates) of 0.04 M HCl/isopropanol, and the absorbance was measured at 570 nm.

[4] = target: T3, equine butyrylcholinesterase (eqBChE) (Equus caballus, UniProt P81908); test: Butyrylcholinesterase inhibition (adapted Ellman's method); type: biochemical
T3 construct: purchased
T3 sequence (P81908 whole entry): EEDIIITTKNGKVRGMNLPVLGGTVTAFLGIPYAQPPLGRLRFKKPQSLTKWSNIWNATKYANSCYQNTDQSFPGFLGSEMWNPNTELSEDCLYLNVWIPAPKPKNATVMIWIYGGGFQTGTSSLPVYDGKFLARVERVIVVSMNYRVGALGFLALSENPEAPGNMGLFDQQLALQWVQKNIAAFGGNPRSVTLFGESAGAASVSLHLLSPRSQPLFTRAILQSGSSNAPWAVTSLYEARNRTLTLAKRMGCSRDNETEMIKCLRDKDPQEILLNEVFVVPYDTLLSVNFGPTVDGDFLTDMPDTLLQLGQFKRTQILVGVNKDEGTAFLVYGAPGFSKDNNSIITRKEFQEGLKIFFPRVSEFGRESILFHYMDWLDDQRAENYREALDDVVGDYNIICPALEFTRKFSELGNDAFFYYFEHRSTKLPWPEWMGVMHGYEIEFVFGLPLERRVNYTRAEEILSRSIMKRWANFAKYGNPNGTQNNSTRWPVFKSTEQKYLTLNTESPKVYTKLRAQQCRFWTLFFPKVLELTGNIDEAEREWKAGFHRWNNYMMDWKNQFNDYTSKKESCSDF
Protocol: as §1

[5] = Free-radical-scavenging assay (DPPH method); conditions: compound concentration 100 μM
Protocol: The percentage of radical-scavenging activity (%AA, antioxidant capacity) of the RIV hybrids was first determined by the 2,2-diphenyl-1-picrylhydrazyl (DPPH) method using a compound concentration of 100 μM. […] Each calibration point was kept 30 min in darkness, and afterwards, the absorbance was measured at 517 nm. The corresponding antioxidant activity (%AA) was calculated using the equation %AA=ADPPH−Aligand/ADPPH×100. From the plot of %AA versus ligand concentration, EC50 was determined. Three independent experiments were performed, and a statistical analysis was conducted by a one-way analysis of variance (ANOVA) with the significance threshold set at p < 0.05.
The RIV hybrids were screened for their radical-scavenging activity by using the DPPH method. These assays were conducted in two stages: first, preliminary analyses were performed for all the compounds to evaluate the percentage of radical-scavenging activity by using a compound concentration of 100 μM. Afterwards, the compounds showing more than 50% antioxidant activity (AA), under those conditions, were further assessed to evaluate the respective EC50 values.

[6] = test system: SH-SY5Y human neuroblastoma cell line; test: Protection against iron/ascorbate-induced toxicity (MTT); type: cell-based; conditions: 1 h pre-treatment at highest nontoxic concentration, then 24 h with Fe/Asc
Protocol: as §2, §3
To evaluate the compounds’ protective effects against toxicity induced by Aβ1–42 or iron/ascorbate, the cells were pre-treated with each compound for one hour before adding Aβ1–42 or iron/ascorbate, followed by an additional 24-h incubation. Aβ1–42 (Bachem, Torrance, CA, USA) was prepared in sterile water to create a 443 µM stock solution and was added to the cells at a final concentration of 1 µM. Ferrous sulfate and L-ascorbic acid (Sigma Chemical Co., St. Louis, MO, USA) were introduced into the medium at final concentrations of 5 mM and 2.5 mM, respectively. […]

T1 sequence (O42275 24-633): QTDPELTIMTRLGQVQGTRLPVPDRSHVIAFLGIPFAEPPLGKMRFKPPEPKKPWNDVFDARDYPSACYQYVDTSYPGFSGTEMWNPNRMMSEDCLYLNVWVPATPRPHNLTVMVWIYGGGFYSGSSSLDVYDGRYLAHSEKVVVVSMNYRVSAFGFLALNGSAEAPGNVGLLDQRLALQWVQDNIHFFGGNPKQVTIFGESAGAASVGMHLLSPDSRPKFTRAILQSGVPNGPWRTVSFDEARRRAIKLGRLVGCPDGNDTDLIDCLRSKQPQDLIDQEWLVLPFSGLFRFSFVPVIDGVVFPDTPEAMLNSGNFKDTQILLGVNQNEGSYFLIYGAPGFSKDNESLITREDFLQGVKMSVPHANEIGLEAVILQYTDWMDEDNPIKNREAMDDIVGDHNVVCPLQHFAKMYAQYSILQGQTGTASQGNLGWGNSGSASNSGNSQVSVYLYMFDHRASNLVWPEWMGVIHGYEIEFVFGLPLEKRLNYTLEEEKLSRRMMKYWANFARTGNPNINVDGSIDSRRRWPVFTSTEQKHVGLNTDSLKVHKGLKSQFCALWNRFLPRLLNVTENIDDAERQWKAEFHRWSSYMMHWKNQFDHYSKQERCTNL

For `O=C(O)/C=C/C=C/c1ccc(O)c(O)c1` [(2E,4E)-5-(3,4-dihydroxyphenyl)penta-2,4-dienoic acid], the EC50 [1] is listed as 18.2 ± 0.2 µM.
In the case of `O=C(O)C=Cc1ccc(O)c(O)c1` [caffeic acid, 3,4-dihydroxycinnamic acid], the EC50 [1] is listed as 21.7 ± 0.2 µM.
Work on `CCN(C)C(=O)Oc1cccc(NC(=O)/C=C/C=C/c2ccc3c(c2)OCO3)c1` [4AY4, 3-((2E,4E)-5-(Benzo[d][1,3]dioxol-5-yl)penta-2,4-dienamido)phenyl ethyl(methyl)carbamate] yielded an IC50 [2] of 14.51 ± 0.04 µM, an inhibition at 20 µM (Aβ1–42) of 23 ± 3% and a highest nontoxic concentration ([3]; dose given for the Aβ1–42 experiments) of 1 µM. For the same compound, the highest nontoxic concentration ([3]; dose given for the iron/ascorbate experiments) was 2.5 µM, the “SI (selectivity index)” value ([4]; SI = IC50 (AChE)/IC50 (BChE)) was 0.9 and the IC50 ([4]; eqBChE, read-out: BChE Inhib IC50) was 15.2 ± 0.4 µM. The “% AA (radical-scavenging activity)” value [5] was <50% and the “rescue of cell viability after iron/ascorbate treatment” value [6] was “capable of rescuing the cell viability; also recorded: significantly improved cell viability”.
